From ChEMBL document CHEMBL1201862, “PubChem BioAssay data set” (2004)
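1) Cells in 96-well plates. 2) Compound, 48 h, 5 concentrations. 3) Linear interpolation between surrounding doses. 4) Unreached endpoint = highest concentration. The concentration for 50% growth inhibition is given as GI50.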 Active and inactive are the calls of the source. Rule as the data show it: active = GI50 up to about 1.1 µM and inactive = higher.

Experiments:
Assay in all cases: NCI tumour cell line growth inhibition, 48 h
A498 = tested on: A498
SR = tested on: SR
DU-145 = tested on: DU-145
NCI/ADR-RES = tested on: NCI/ADR-RES
TK-10 = tested on: TK-10
CCRF-CEM = tested on: CCRF-CEM
SF-539 = tested on: SF-539
NCI-H460 = tested on: NCI-H460
NCI-H226 = tested on: NCI-H226
HOP-92 = tested on: HOP-92
UO-31 = tested on: UO-31
SF-268 = tested on: SF-268
BT-549 = tested on: BT-549
OVCAR-4 = tested on: OVCAR-4
CAKI-1 = tested on: CAKI-1
Hs-578T = tested on: Hs-578T
Malme-3M = tested on: Malme-3M
OVCAR-3 = tested on: OVCAR-3
SNB-75 = tested on: SNB-75
HCC 2998 = tested on: HCC 2998

SMILES | GI50 (A498) | GI50 (SR) | GI50 (DU-145) | GI50 (NCI/ADR-RES) | GI50 (TK-10) | GI50 (CCRF-CEM) | GI50 (SF-539) | GI50 (NCI-H460) | GI50 (NCI-H226) | GI50 (HOP-92) | GI50 (UO-31) | GI50 (SF-268) | GI50 (BT-549) | GI50 (OVCAR-4) | GI50 (CAKI-1) | GI50 (Hs-578T) | GI50 (Malme-3M) | GI50 (OVCAR-3) | GI50 (SNB-75) | GI50 (HCC 2998)
N#CC(C#N)=NNc1ccc2cn[nH]c2c1 | > 100 µM (inactive) | 22.6 µM (inactive) | 29 µM (inactive) | > 100 µM (inactive) | 26.7 µM (inactive) | 13.6 µM (inactive) | 70.8 µM (inactive) | 57.3 µM (inactive) | > 100 µM (inactive) | 37.1 µM (inactive) | 14 µM (inactive) | 36.3 µM (inactive) | > 100 µM (inactive) | 30.7 µM (inactive) | 29.6 µM (inactive) | 24.8 µM (inactive) | 28.4 µM (inactive) | 23.9 µM (inactive) |  | 
Cc1ccc(S(=O)(=O)NC2=NS(=O)(=O)c3cc(C)c(Cl)cc3S2)cc1 | > 100 µM (inactive) | 63.4 µM (inactive) | > 100 µM (inactive) | > 100 µM (inactive) | > 100 µM (inactive) |  | 58.3 µM (inactive) | > 100 µM (inactive) | > 100 µM (inactive) | 24.4 µM (inactive) | > 100 µM (inactive) | > 100 µM (inactive) | > 100 µM (inactive) | > 100 µM (inactive) | > 100 µM (inactive) | > 100 µM (inactive) | 38.8 µM (inactive) | > 100 µM (inactive) | > 100 µM (inactive) | 82.6 µM (inactive)
CC1(C)N=C(N)N=C(N)N1c1ccc(CCCCc2ccc(Cl)cc2Cl)cc1 | 12.8 µM (inactive) | 0.735 µM (active) | 1.92 µM (inactive) | 93.5 µM (inactive) | 3.13 µM (inactive) | 0.736 µM (active) | 0.929 µM (active) | 0.0165 µM (active) |  | 4.08 µM (inactive) | 21.2 µM (inactive) | 0.382 µM (active) | 1.85 µM (inactive) | 0.542 µM (active) | 2.05 µM (inactive) | 4.67 µM (inactive) | 0.486 µM (active) | 0.431 µM (active) |  | 0.451 µM (active)
C[C@@H](NC(=O)Nc1cccc(C(=O)Nc2cc(C(C)(C)C)ccc2C(=O)O)n1)c1ccccc1 | 64.1 µM (inactive) | 28.4 µM (inactive) | 40.2 µM (inactive) | > 100 µM (inactive) |  |  |  | 52.1 µM (inactive) | 38.3 µM (inactive) |  | 40.1 µM (inactive) | 46.8 µM (inactive) | 37 µM (inactive) | 50.1 µM (inactive) | 82.2 µM (inactive) | 40.4 µM (inactive) | 46.5 µM (inactive) | 21.4 µM (inactive) | 32.1 µM (inactive) | 50.8 µM (inactive)
Cn1c(=O)n2c(=O)n(C)c(=O)n2c1=O | > 100 µM (inactive) | > 100 µM (inactive) | > 100 µM (inactive) | > 100 µM (inactive) | > 100 µM (inactive) | > 100 µM (inactive) | > 100 µM (inactive) | > 100 µM (inactive) | > 100 µM (inactive) |  | > 100 µM (inactive) | > 100 µM (inactive) | > 100 µM (inactive) | > 100 µM (inactive) | > 100 µM (inactive) | > 100 µM (inactive) | > 100 µM (inactive) | > 100 µM (inactive) | > 100 µM (inactive) | > 100 µM (inactive)
CCOC(=O)NC(Nc1ccc(C(=O)OCC)cc1)(C(F)(F)F)C(F)(F)F | > 100 µM (inactive) | 86.3 µM (inactive) | > 100 µM (inactive) | > 100 µM (inactive) | > 100 µM (inactive) | 6.58 µM (inactive) | > 100 µM (inactive) | 66.8 µM (inactive) | > 100 µM (inactive) | > 100 µM (inactive) | 42.5 µM (inactive) | > 100 µM (inactive) | > 100 µM (inactive) | > 100 µM (inactive) |  | > 100 µM (inactive) | > 100 µM (inactive) | > 100 µM (inactive) | > 100 µM (inactive) | > 100 µM (inactive)
CC1=NN(c2nc(N)nc(/C(C#N)=C/c3ccncc3)n2)C(C)(C)C1 | 60.3 µM (inactive) | 74.6 µM (inactive) | 47.4 µM (inactive) | > 100 µM (inactive) | > 100 µM (inactive) | 49.3 µM (inactive) | > 100 µM (inactive) | > 100 µM (inactive) | > 100 µM (inactive) | > 100 µM (inactive) | > 100 µM (inactive) | > 100 µM (inactive) | > 100 µM (inactive) | > 100 µM (inactive) | > 100 µM (inactive) | > 100 µM (inactive) |  |  | > 100 µM (inactive) | > 100 µM (inactive)
O=C(Nc1sccc1S(=O)(=O)c1ccc(Cl)cc1)c1ccc(Cl)cc1Cl | > 100 µM (inactive) | 12.1 µM (inactive) | > 100 µM (inactive) | > 100 µM (inactive) | > 100 µM (inactive) | > 100 µM (inactive) | > 100 µM (inactive) | > 95.7 µM (inactive) | > 100 µM (inactive) | > 93.1 µM (inactive) | > 100 µM (inactive) | > 100 µM (inactive) | > 100 µM (inactive) | > 93.8 µM (inactive) | > 100 µM (inactive) | > 100 µM (inactive) | > 100 µM (inactive) | 28.2 µM (inactive) | > 100 µM (inactive) | 
Fc1cccc(F)c1C1SCC2=Nc3ccccc3CN21 (configuration not stated) | > 100 µM (inactive) | 37.8 µM (inactive) | 60 µM (inactive) | 22.4 µM (inactive) | > 100 µM (inactive) | > 100 µM (inactive) | 26.7 µM (inactive) | 71 µM (inactive) |  | 71.8 µM (inactive) | 96.6 µM (inactive) | > 10 µM (inactive) | 98.6 µM (inactive) | > 100 µM (inactive) | > 100 µM (inactive) | 25.4 µM (inactive) |  | 19 µM (inactive) | 18.7 µM (inactive) | > 100 µM (inactive)
CC1=NN(c2nc(N)nc(CCl)n2)C(C)(C)C1 | 30.6 µM (inactive) | 15.8 µM (inactive) | 35.1 µM (inactive) | 14.4 µM (inactive) | > 71.6 µM (inactive) | 8.15 µM (inactive) | 18.9 µM (inactive) | 17.2 µM (inactive) | 38.1 µM (inactive) | 17.9 µM (inactive) | 9.02 µM (inactive) | 20.6 µM (inactive) | 26.7 µM (inactive) | 8.63 µM (inactive) | 3.15 µM (inactive) | 21 µM (inactive) |  | 14.1 µM (inactive) | 24.3 µM (inactive) | 27.1 µM (inactive)
COC(=O)c1ccc(OCc2ccc3nc(-c4ccccc4)c(Cl)nc3c2)cc1 | > 100 µM (inactive) | > 100 µM (inactive) | > 100 µM (inactive) | 65.2 µM (inactive) | 58.2 µM (inactive) | > 100 µM (inactive) | 33.1 µM (inactive) | > 100 µM (inactive) |  | 28.1 µM (inactive) | > 100 µM (inactive) | 42.9 µM (inactive) | > 100 µM (inactive) | 62.1 µM (inactive) | 28.6 µM (inactive) | 30.1 µM (inactive) |  | > 100 µM (inactive) | 22.9 µM (inactive) | > 100 µM (inactive)
OCC(O)C(Cl)CCl (configuration not stated) | > 10 µM (inactive) | > 100 µM (inactive) | > 100 µM (inactive) | > 100 µM (inactive) | > 100 µM (inactive) | > 100 µM (inactive) | > 100 µM (inactive) | > 100 µM (inactive) | > 100 µM (inactive) |  | > 100 µM (inactive) | > 100 µM (inactive) | > 100 µM (inactive) | > 100 µM (inactive) | > 100 µM (inactive) | > 100 µM (inactive) | 31.5 µM (inactive) | > 100 µM (inactive) | > 100 µM (inactive) | > 100 µM (inactive)
CCC(=O)Nc1ccc(NC(C#N)c2cccc(Oc3ccccc3)c2)cc1 (configuration not stated) | > 100 µM (inactive) | 18.2 µM (inactive) | 48.3 µM (inactive) | 28.2 µM (inactive) |  | 32.1 µM (inactive) | 32.9 µM (inactive) |  | 30.3 µM (inactive) | 34.8 µM (inactive) | 42.2 µM (inactive) | 33.6 µM (inactive) | 57.7 µM (inactive) | 54.1 µM (inactive) | 54.6 µM (inactive) | 67.3 µM (inactive) | 26.1 µM (inactive) | 52.4 µM (inactive) | 42 µM (inactive) | 
NC(=O)SCC(=O)Nc1ccc2cccc3c2c1CC3 | 91 µM (inactive) | 8.71 µM (inactive) | > 100 µM (inactive) | 42.6 µM (inactive) | 27.9 µM (inactive) | 8.02 µM (inactive) | 15.1 µM (inactive) |  |  | 0.596 µM (active) | 41.2 µM (inactive) | 15.3 µM (inactive) | 16.2 µM (inactive) | 17.3 µM (inactive) | 42.1 µM (inactive) | 47.6 µM (inactive) | > 100 µM (inactive) | 31.6 µM (inactive) | 96.6 µM (inactive) | 62.1 µM (inactive)
CCOC(=O)c1c(CN2CCCC2)n(-c2ccccc2)c2cc(Br)c(O)cc12 | 16.4 µM (inactive) | 18.7 µM (inactive) | 19.6 µM (inactive) | 22.4 µM (inactive) | 20.5 µM (inactive) | 2.06 µM (inactive) |  | 17 µM (inactive) |  | 20 µM (inactive) | 12.1 µM (inactive) | 19.9 µM (inactive) | 36.1 µM (inactive) | 14.3 µM (inactive) | 17.1 µM (inactive) | 26.4 µM (inactive) | 19.5 µM (inactive) | 15.9 µM (inactive) | 15.3 µM (inactive) | 
